Test system: 349418-098-R-PDC complex spheroid growth
Experiment: Anticancer human tumor 349418-098-R-PDC patient-derived lung adenocarcinoma cell line growth inhibition [AhR]
Conditions: for IC50: curve of first compound; for viability, T/C: stronger effect = lower value
How it was run: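 Complex tumor spheroids co-cultured with HUVEC and human MSC stroma; AhR antagonists tested in combination with standard-of-care and investigational agents. Top concentration at or near clinical Cmax (else 10 microM), half-log dilutions; growth expressed as percent test/control.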

[1] = second compound 0.1 µM, first compound 0.0316 µM
[2] = second compound 0.1 µM, first compound 0.1 µM
[3] = second compound 0.1 µM, first compound 0.316 µM
[4] = second compound 0.1 µM, first compound 1 µM
[5] = second compound 0.1 µM, first compound 3.16 µM
[6] = second compound 0.1 µM, first compound 10 µM
[7] = second compound 0.316 µM, first compound 0.0316 µM
[8] = second compound 0.316 µM, first compound 0.1 µM
[9] = second compound 0.316 µM, first compound 0.316 µM
[10] = second compound 0.316 µM, first compound 1 µM
[11] = second compound 0.316 µM, first compound 3.16 µM
[12] = second compound 0.316 µM, first compound 10 µM
[13] = second compound 1 µM, first compound 0.0316 µM
[14] = second compound 1 µM, first compound 0.1 µM
[15] = second compound 1 µM, first compound 0.316 µM
[16] = second compound 1 µM, first compound 1 µM
[17] = second compound 1 µM, first compound 3.16 µM
[18] = second compound 1 µM, first compound 10 µM
[19] = second compound 3.16 µM, first compound 0.0316 µM
[20] = second compound 3.16 µM, first compound 0.1 µM
[21] = second compound 3.16 µM, first compound 0.316 µM
[22] = second compound 3.16 µM, first compound 1 µM
[23] = second compound 3.16 µM, first compound 3.16 µM
[24] = second compound 3.16 µM, first compound 10 µM
[25] = second compound 10 µM, first compound 0.0316 µM
[26] = second compound 10 µM, first compound 0.1 µM
[27] = second compound 10 µM, first compound 0.316 µM
[28] = second compound 10 µM, first compound 1 µM
[29] = second compound 10 µM, first compound 3.16 µM
[30] = second compound 10 µM, first compound 10 µM
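Further: spheroids exposed to agents for seven days before luminescence viability read.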
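Wherever viability, T/C is given: spheroids also contain HUVEC endothelial cells and human MSC stroma.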

| Compound | IC50 (second compound 0.1 µM) [nM] | IC50 (second compound 0.316 µM) [nM] | IC50 (second compound 1 µM) [nM] | IC50 (second compound 3.16 µM) [nM] | IC50 (second compound 10 µM) [nM] | viability, T/C [1] [%] | viability, T/C [2] [%] | viability, T/C [3] [%] | viability, T/C [4] [%] | viability, T/C [5] [%] | viability, T/C [6] [%] | viability, T/C [7] [%] | viability, T/C [8] [%] | viability, T/C [9] [%] | viability, T/C [13] [%] | viability, T/C [14] [%] | viability, T/C [19] [%] | viability, T/C [20] [%] | viability, T/C [25] [%] | viability, T/C [26] [%] | other results |
| --- | --- | --- | --- | --- | --- | --- | --- | --- | --- | --- | --- | --- | --- | --- | --- | --- | --- | --- | --- | --- | --- |
| COc1cc(Nc2ncc3c(n2)-c2ccc(Cl)cc2C(c2c(F)cccc2OC)=NC3)ccc1C(=O)O + CC(CO)NC(=O)c1cc(-c2ccc(Cl)cc2)nn(-c2cnn(C)c2)c1=O | 92.5 | 47.4 | 107 | 47.3 | < 31.6 | 66.3 | 49.3 | 33.4 | 37.4 | 31.7 | 23.1 | 58.7 | 33.7 | 29.5 | 71.9 | 51.3 | 55.2 | 41.3 | 38.4 | 23.4 | viability, T/C [10]: 29.2%; viability, T/C [11]: 28.1%; viability, T/C [12]: 26%; viability, T/C [15]: 27.8%; viability, T/C [16]: 31.3%; viability, T/C [17]: 29.5%; viability, T/C [18]: 32%; viability, T/C [21]: 32.8%; viability, T/C [22]: 28%; viability, T/C [23]: 28.8%; viability, T/C [24]: 29.7%; viability, T/C [27]: 32%; viability, T/C [28]: 24.8%; viability, T/C [29]: 20.9%; viability, T/C [30]: 24.2% |
| Cn1ncnc1C1c2n[nH]c(=O)c3cc(F)cc(c23)NC1c1ccc(F)cc1 (stereo not given) + CC(CO)NC(=O)c1cc(-c2ccc(Cl)cc2)nn(-c2cnn(C)c2)c1=O | > 100 | > 100 | > 100 | 14.3 | 4.21 | 84.9 | 87.3 |  |  |  |  | 48 | 60.1 |  | 51.2 | 56.8 | 37.6 | 45.3 | 32.4 | 39.2 | viability, T/C (second compound 0.1 µM, first compound 0.000316 µM): 81.4%; viability, T/C (second compound 0.1 µM, first compound 0.001 µM): 85.1%; viability, T/C (second compound 0.1 µM, first compound 0.00316 µM): 94%; viability, T/C (second compound 0.1 µM, first compound 0.01 µM): 96.2%; viability, T/C (second compound 0.316 µM, first compound 0.000316 µM): 71.8%; viability, T/C (second compound 0.316 µM, first compound 0.001 µM): 84.4%; viability, T/C (second compound 0.316 µM, first compound 0.00316 µM): 60.6%; viability, T/C (second compound 0.316 µM, first compound 0.01 µM): 76.3%; viability, T/C (second compound 1 µM, first compound 0.000316 µM): 78.1%; viability, T/C (second compound 1 µM, first compound 0.001 µM): 106%; viability, T/C (second compound 1 µM, first compound 0.00316 µM): 83.9%; viability, T/C (second compound 1 µM, first compound 0.01 µM): 52.2%; viability, T/C (second compound 3.16 µM, first compound 0.000316 µM): 83.1%; viability, T/C (second compound 3.16 µM, first compound 0.001 µM): 68.9%; viability, T/C (second compound 3.16 µM, first compound 0.00316 µM): 55.7%; viability, T/C (second compound 3.16 µM, first compound 0.01 µM): 61%; viability, T/C (second compound 10 µM, first compound 0.000316 µM): 39.9%; viability, T/C (second compound 10 µM, first compound 0.001 µM): 64.7%; viability, T/C (second compound 10 µM, first compound 0.00316 µM): 59.8%; viability, T/C (second compound 10 µM, first compound 0.01 µM): 35.2% |
| NS(=O)(=O)OCC1CC(n2ccc3c(NC4CCc5ccccc54)ncnc32)CC1O (stereo not given) + CC(CO)NC(=O)c1cc(-c2ccc(Cl)cc2)nn(-c2cnn(C)c2)c1=O | 188 | 149 | 107 | 49.4 | < 31.6 | 83.2 | 65.6 | 37.1 | 18.4 | 13.4 | 8.51 | 92.7 | 62.9 | 24.7 | 68.8 | 52.2 | 54.8 | 42.6 | 33.8 | 30.9 | viability, T/C [10]: 19.9%; viability, T/C [11]: 11.2%; viability, T/C [12]: 8.21%; viability, T/C [15]: 24.5%; viability, T/C [16]: 16.3%; viability, T/C [17]: 10.8%; viability, T/C [18]: 9.16%; viability, T/C [21]: 22.7%; viability, T/C [22]: 14.7%; viability, T/C [23]: 10.7%; viability, T/C [24]: 8.74%; viability, T/C [27]: 25.7%; viability, T/C [28]: 16.7%; viability, T/C [29]: 10.9%; viability, T/C [30]: 8.91% |
| O=C(C=Cc1cccc(S(=O)(=O)Nc2ccccc2)c1)NO + CC(CO)NC(=O)c1cc(-c2ccc(Cl)cc2)nn(-c2cnn(C)c2)c1=O | 572 | 615 | 638 | 567 | 445 | 85.8 | 94 | 69.8 | 30 | 8.25 | 1.75 | 110 | 101 | 75.5 | 99.8 | 109 | 90.7 | 102 | 72.7 | 82.5 | viability, T/C [10]: 31.5%; viability, T/C [11]: 7.87%; viability, T/C [12]: 1.86%; viability, T/C [15]: 77%; viability, T/C [16]: 31.8%; viability, T/C [17]: 8.85%; viability, T/C [18]: 1.91%; viability, T/C [21]: 68.4%; viability, T/C [22]: 30.1%; viability, T/C [23]: 7.44%; viability, T/C [24]: 1.82%; viability, T/C [27]: 53.6%; viability, T/C [28]: 32.1%; viability, T/C [29]: 7.16%; viability, T/C [30]: 1.98% |
